For orientation: Km means the substrate concentration at which the rate is half of its maximum.

Data on eleven sequences can be found in article doi:10.1101/2025.07.04.663216, “A Computational Workflow for Structure-Guided Design of Potent and Selective Kinase Peptide Substrates” (bioRxiv, 2025).

For data set [1], the target named is T1, ALK (Homo sapiens, UniProt Q9UM73).
T1 construct: purchased Carna Biosciences 08–518
In words: ADP-Glo kinase assay, ALK. Particulars: ADP-Glo luminescence; vs parent KSRGDYMTMQIG (axltide); enzyme 1.25–10 nM, ATP 10 μM, peptide 1 μM, 90 min, 25°C; repeated twice, mean. Format: biochemical. An excerpt: (§1) To experimentally evaluate the computationally optimized peptide sequences, we chose five kinases based on commercial availability. Using the ipAE, pLDDT, and ipTM scores, we ranked the Subtimizer-designed sequences, and for each kinase we selected two to five peptides for synthesis and experimental testing. We evaluated the activity of the peptides using the ADP-Glo kinase assay, a luminescence-based method that quantifies ADP production as a measure of kinase activity. First, we measured the ADP-Glo signals for the parental peptide and the baseline (no enzyme background) for the five kinases. […] The varying signal intensities across different kinases reflect differences in their specific activities and the efficiency of the parent peptide substrates.
(§2) ADP-Glo Kit (ADP-Glo™ Kinase Assay, Cat#V6930) was obtained from Promega. The kinases ALK (#08–518), MET (#08–151), ROS1 (#08–163), and EGFR L858R (#08–502) were products of Carna Biosciences. SRC was expressed and purified as previously reported. Substrate peptides were obtained from Biomatik Corporation (Wilmington, DE, USA). All components were equilibrated to 25°C prior to setting up reactions in 384-well microplates (White ProxiPlate 384-shallow well Plus). […] Experiments were repeated twice with results expressed as mean ± standard deviation. Luminescence was detected on a Synergy Neo2 plate reader.

Data set [2] deals with T2, MET (Homo sapiens, UniProt P08581).
T2 construct: purchased Carna Biosciences 08–151
In words: ADP-Glo kinase assay, MET. Format: biochemical. Particulars: ADP-Glo luminescence; vs parent EEPLYWSFPAK; enzyme 1.25–10 nM, ATP 10 μM, peptide 1 μM, 90 min, 25°C; repeated twice, mean.
Description: as §1, §2
(In ADP-Glo the light output rises with the ADP produced.)

Data set [3] has as its target T3, ROS1 (Homo sapiens, UniProt P08922).
T3 construct: purchased Carna Biosciences 08–163
Kind of data set: ADP-Glo kinase assay, ROS1. The format is biochemical. Conditions: ADP-Glo luminescence; vs parent EEPLYWSFPAK; enzyme 1.25–10 nM, ATP 10 μM, peptide 1 μM, 90 min, 25°C; repeated twice, mean.
Description: as §1, §2

Data set [4] addresses T3, ROS1. Kind of data set: LIMS-kinase assay kinetic analysis (Km), ROS1. Format: biochemical. Conditions: for Km: LIMS-kinase, MS signal of ADP fragment, ATP 100 μM, peptide from 300–400 μM, 2- or 3-fold dilutions, 25°C, Michaelis-Menten fit, repeated twice. An excerpt:
(§3) Figures 3A and 3B illustrate the schematic of a kinase assay reaction and the multiple reaction monitoring (MRM) phosphorylation detection system employed in the LIMS-kinase assay. The MRM setup comprises a RapidFire liquid chromatography sampler (Agilent) coupled to a triple quadrupole mass spectrometer (AB Sciex 6500). Quadrupole 1 (Q1) acts as a mass filter, selecting precursor ions based on their mass-to-charge ratios. Q2 functions as a collision cell, fragmenting these precursor ions into product ions. Q3 serves as an additional mass filter, specifically monitoring desired product ion fragments originating from the Q1-selected parent ion (Figure 3B).
(§4) To determine kinase activity, we directly measured ADP production by following specific ADP ion fragments rather than quantifying phosphorylated peptide fragments as in our original published LIMS-kinase assay. We chose to measure ADP production rather than the phosphorylated peptide product to avoid potential variations in ionization efficiency or fragmentation patterns that can arise from differences in amino acid sequences and physicochemical properties of different peptide substrates. This ensures not only a more direct and unbiased comparison of potency across different peptides, but also broad applicability of optimized substrates across different assay platforms. Initial tests confirmed that we were able to selectively detect an ADP fragment in kinase/peptide reactions (Figure S5). The ADP signal was enzyme concentration- and time-dependent, consistent with the expected response of a functional assay. […] We evaluated two enzyme concentrations with the objective of selecting the concentration where activity was linear to 60 minutes with a strong signal (Figure S5). […]
(§5) Final working concentrations of enzyme varied by kinase. […] Activity was evaluated by measuring MS signal of ADP-specific fragment ion. Experiments were repeated twice, with results expressed as mean ± standard deviation.
(§6) Km was evaluated by linear regression of the first three time-points at each concentration of peptide. […]

The target in data set [5] is T2, MET. In words: Peptide selectivity assay (LIMS-kinase), MET. Particulars: LIMS-kinase ADP production; MET 5 nM, peptides 134 μM, ATP 100 μM, 30 min, room temperature; repeated twice. The format is biochemical. As for the experimental part: (§7) All components equilibrated to 25°C prior to setting up reactions. All reagents added manually. Peptides added to 384-well microplates (Costar 3657 round bottom polypropylene). A pre-mixed buffer, enzyme, and ATP solution was added to initiate reaction. Reaction was quenched with 1% formic acid (final) following 30-minute incubation at room temperature. Kinase activity was evaluated by measuring MS signal of ADP-specific fragment ion. Experiments were repeated twice, with results expressed as mean ± standard deviation. Time 0 (background) values were subtracted from subsequent time-points.
(§8) RapidFire liquid chromatography and mass spectrometry methods were performed as previously described.

A short description of data set [6]: Peptide solubility observed in Km study. Particulars: observation in the Km study with EGFR L858R; peptide concentrations started at 300–400 μM. The format is physicochemical. An excerpt: We ran LIMS-kinase assays using a range of peptide concentrations. We plotted the initial reaction rate for each concentration to generate Michaelis-Menten curves. […] We could not run a successful Km study with EGFR L858R due to the insolubility of the parental MS-csktide1 peptide at high concentrations, similar to our previous observation.

Data set [7] has as its target T2, MET. In words: LIMS-kinase assay kinetic analysis (Km), MET. Format: biochemical. Conditions: for Km: LIMS-kinase, MS signal of ADP fragment, ATP 100 μM, peptide from 300–400 μM, 2- or 3-fold dilutions, 25°C, Michaelis-Menten fit, repeated twice.
Description: as §3, §4, §5, §6

For data set [8], the target named is T3, ROS1. Kind of data set: Peptide selectivity assay (LIMS-kinase), ROS1. Format: biochemical. Conditions: LIMS-kinase ADP production; ROS1 0.63 nM, peptides 20.3 μM, ATP 100 μM, 30 min, room temperature; repeated twice. On the procedure: as §7, §8
For another data set, the system named is EGFR L858R. In words: ADP-Glo kinase assay, EGFR L858R. Particulars: ADP-Glo luminescence; vs parent KEEIYFFF; enzyme 1.25–10 nM, ATP 10 μM, peptide 1 μM, 90 min, 25°C; repeated twice, mean. Format: biochemical.
Description: as §1, §2

Data set [9] deals with T1, ALK. In words: LIMS-kinase assay kinetic analysis (Km), ALK. The format is biochemical. Particulars: MS signal of ADP fragment, ATP 100 μM, peptide from 300–400 μM, 2- or 3-fold dilutions, 25°C, Michaelis-Menten fit, repeated twice.
Description: as §3
To determine kinase activity, we directly measured ADP production by following specific ADP ion fragments rather than quantifying phosphorylated peptide fragments as in our original published LIMS-kinase assay. […] We evaluated two enzyme concentrations with the objective of selecting the concentration where activity was linear to 60 minutes with a strong signal (Figure S5). […]
as §5, §6

T2 sequence (P08581 25-1390): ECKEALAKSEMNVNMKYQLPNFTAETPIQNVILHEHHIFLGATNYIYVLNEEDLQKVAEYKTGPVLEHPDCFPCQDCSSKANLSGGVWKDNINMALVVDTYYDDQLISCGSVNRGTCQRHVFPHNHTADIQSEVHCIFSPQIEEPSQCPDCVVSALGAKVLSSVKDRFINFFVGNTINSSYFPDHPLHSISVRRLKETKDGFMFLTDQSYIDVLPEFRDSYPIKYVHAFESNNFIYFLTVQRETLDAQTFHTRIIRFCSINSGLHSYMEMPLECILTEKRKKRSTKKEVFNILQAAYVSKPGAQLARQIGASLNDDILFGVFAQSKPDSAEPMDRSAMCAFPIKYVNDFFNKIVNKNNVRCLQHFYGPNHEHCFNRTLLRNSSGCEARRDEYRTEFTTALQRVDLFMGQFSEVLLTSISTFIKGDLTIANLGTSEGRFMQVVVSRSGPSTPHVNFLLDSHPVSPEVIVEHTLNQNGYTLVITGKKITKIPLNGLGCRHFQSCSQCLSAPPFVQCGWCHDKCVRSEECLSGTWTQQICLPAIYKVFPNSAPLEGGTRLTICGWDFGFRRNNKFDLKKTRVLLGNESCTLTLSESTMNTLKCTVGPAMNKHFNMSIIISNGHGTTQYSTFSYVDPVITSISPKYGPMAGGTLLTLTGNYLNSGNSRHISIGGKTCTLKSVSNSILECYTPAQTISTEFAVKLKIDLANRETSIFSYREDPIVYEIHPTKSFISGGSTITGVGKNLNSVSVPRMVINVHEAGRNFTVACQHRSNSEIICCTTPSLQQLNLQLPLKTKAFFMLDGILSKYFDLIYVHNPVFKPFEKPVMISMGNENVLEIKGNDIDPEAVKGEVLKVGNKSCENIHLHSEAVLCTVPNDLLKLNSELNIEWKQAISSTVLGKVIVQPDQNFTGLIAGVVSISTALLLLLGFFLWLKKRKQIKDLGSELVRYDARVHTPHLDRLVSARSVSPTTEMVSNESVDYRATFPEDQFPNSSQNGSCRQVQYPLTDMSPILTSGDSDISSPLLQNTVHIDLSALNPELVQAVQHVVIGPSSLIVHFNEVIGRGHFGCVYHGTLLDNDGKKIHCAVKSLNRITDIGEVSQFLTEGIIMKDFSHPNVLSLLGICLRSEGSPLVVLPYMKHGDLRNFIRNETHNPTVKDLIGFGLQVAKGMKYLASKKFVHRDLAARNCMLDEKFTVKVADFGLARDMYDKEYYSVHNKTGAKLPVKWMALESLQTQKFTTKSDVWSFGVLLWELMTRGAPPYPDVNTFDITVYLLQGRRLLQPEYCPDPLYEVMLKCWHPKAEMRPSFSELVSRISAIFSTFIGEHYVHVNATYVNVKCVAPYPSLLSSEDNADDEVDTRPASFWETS
T3 sequence (P08922 28-2347): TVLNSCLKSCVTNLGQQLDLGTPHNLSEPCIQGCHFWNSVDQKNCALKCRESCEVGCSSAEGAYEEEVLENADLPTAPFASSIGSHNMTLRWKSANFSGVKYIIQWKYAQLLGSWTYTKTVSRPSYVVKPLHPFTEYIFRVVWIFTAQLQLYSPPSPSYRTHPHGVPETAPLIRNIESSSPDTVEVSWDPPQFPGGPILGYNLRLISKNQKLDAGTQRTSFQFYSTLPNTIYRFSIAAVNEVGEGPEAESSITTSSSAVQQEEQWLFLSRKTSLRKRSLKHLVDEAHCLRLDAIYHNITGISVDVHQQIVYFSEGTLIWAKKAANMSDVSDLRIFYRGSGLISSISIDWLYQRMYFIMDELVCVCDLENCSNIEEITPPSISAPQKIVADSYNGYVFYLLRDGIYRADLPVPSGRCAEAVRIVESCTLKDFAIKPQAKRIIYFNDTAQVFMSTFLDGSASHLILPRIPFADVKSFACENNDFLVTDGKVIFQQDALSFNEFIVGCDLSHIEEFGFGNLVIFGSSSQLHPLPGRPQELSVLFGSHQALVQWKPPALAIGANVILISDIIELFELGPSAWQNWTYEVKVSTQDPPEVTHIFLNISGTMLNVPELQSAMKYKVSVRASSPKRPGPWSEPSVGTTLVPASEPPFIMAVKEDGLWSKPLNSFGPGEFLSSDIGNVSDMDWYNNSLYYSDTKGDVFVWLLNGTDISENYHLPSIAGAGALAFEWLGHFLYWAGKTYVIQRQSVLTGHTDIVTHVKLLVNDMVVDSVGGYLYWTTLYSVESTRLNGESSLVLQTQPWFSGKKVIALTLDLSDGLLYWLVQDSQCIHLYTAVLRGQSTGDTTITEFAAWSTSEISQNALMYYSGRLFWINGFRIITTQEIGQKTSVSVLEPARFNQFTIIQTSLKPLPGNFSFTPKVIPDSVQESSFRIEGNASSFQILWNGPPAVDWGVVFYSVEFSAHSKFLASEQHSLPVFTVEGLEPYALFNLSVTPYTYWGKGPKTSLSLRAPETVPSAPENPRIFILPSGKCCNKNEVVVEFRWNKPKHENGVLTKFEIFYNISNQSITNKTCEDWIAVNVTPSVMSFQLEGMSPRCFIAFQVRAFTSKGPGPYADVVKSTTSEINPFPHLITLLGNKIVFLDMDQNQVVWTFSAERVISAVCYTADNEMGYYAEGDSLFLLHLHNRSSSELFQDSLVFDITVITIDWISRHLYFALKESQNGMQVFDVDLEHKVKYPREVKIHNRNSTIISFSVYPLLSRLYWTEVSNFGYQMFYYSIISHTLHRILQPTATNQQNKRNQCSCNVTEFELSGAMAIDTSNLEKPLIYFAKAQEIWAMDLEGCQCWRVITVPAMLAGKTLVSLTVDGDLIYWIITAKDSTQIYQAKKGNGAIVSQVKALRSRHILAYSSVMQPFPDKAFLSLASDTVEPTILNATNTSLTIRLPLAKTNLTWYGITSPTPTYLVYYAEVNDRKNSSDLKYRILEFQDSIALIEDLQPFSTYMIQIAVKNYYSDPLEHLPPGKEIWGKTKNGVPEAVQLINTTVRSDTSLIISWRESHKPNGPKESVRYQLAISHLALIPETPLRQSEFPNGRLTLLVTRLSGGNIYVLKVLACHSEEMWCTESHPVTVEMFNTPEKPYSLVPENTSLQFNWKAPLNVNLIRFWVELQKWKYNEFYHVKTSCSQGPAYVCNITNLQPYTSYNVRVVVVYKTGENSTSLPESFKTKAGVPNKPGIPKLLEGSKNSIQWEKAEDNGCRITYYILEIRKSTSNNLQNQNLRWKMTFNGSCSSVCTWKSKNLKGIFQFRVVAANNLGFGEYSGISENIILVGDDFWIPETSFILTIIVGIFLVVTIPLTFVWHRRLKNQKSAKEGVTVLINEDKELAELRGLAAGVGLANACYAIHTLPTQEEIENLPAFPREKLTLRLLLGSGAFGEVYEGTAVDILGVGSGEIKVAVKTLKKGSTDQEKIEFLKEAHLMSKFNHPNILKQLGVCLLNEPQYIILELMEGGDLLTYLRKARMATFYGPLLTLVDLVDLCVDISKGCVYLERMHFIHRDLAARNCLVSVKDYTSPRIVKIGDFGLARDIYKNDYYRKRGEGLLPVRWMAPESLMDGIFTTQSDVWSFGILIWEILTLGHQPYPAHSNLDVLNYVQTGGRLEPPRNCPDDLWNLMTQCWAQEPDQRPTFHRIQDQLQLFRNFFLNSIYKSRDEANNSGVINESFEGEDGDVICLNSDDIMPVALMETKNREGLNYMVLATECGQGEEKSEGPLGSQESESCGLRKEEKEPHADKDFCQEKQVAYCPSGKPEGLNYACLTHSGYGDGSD

Take “HSPEDYMWVEME [alk-s5, designed ALK peptide substrate …]”: the “relative percentage change (increase) in kinase activity compared to parent peptide” value (from here on “relative percentage change (increase)”) on ALK [1] is 146%. Regarding “EEPLYVALPAP [met-s2, designed MET peptide substrate …]”, on MET [2], the “relative percentage change (increase)” value is given as approximately 11%. Turning to KEPFYMRLKPK [ros1-s2], the “relative percentage change (increase)” value at ROS1 [3] was “about 35%”. Besides, the Km at ROS1 [4] was 20.3 µM. Besides, the “improvement in apparent binding affinity (Km) vs parental MS-srctide” value at ROS1 [4] (ROS1, Km 47.59 to 20.30 µM) is listed as more than 2 fold. The “reduction in MET kinase activity compared to met-s1” value on MET [5] is given as “over 4 fold”. Turning to “KEEIYFFF [MS-csktide1, parental peptide substrate KEEIYFFF used for EGFR L858R]”, in data set [6], the “solubility at high concentrations” value is on record as “insolubility”.

Take EEPAYVALPAK [met-s1]: the “relative percentage change (increase)” value at MET [2] is “approximately 41%”. In addition, on MET [7], the Km stood at 134 µM. In addition, the “reduction in Km vs parental MS-srctide” value at MET [7] (MET, Km 288 to 134 µM) is “over 2 fold”. The “reduction in ROS1 kinase activity compared to ros1-s2” value at ROS1 [8] is recorded as “over 11 fold”. For the sequence “EPEDYAPV [egfr-s1, designed EGFR L858R peptide substrate EPEDYAPV]”, the “relative percentage change (increase)” value in the data set with EGFR L858R is “about 10%”. Turning to “HDPEDYMWVEMR [alk-s3, designed ALK peptide substrate …]”, the Km on ALK [9] worked out at 14.1 µM. As to EPEGYAPL [egfr-s2], the “relative percentage change (increase)” value in the data set with EGFR L858R is given as “approximately 5%”.

As for “EEPLYWSFPAK [MS-srctide, parental peptide substrate … for many kinases including MET and ROS1, reference compound]”, the Km was found to be 47.6 µM on ROS1 [4] and 288 µM on MET [7].

On to “KSRGDYMTMQIG [MS-axltide, parental peptide substrate … used for ALK, reference compound]”, for which, at ALK [9], the Km turned out to be 18.4 µM. Take “PDPDDYMLMEIG [alk-s4, designed ALK peptide substrate …]”: the “relative percentage change (increase)” value on ALK [1] amounted to 130%.
